Patent US5098935A, “Carcinostatic or antitumor antibiotic, conagenin, and production and uses thereof” (Zaidan Hojin Biseibutsu Kagaku Kenkyu Kai, priority 1989, dated 1992)
“Also recorded” adds a separate entry of the source.

Columns and labels:
[1] = system: Leukemia L1210 cells; test: Effect on the surface of carcinoma cell membrane: binding of radiolabelled Concanavalin A to Leukemia L1210 cells; assay type: cell-based
Procedure: Each of the resulting suspensions was incubated in a CO2 -incubator (CO2 concentration:5%) at 37° C. for 2 days. A radioisotope-labelled Concanavalin A (Concanavalin A N-[acetyl-^3 H] acetylated; a product of Amersham Co., Ltd.) in an amount of 40 nCi/ml was added to the suspension under incubation at a time of one hour before the end of the incubation. The incubated cells were fixed on a filter paper by a cell harvester and the radioactivity value of the cells so fixed was measured by a liquid scintillation counter. The respective values thus given were converted assumed that the radioactivity value of the control group sample was amounting to 100, and the converted values are shown in Table 4 as the increase in binding of Concanavalin A to L1210 cells.

[2] = Solubility; assay type: physicochemical
[3] = system: Ehrlich's solid carcinoma; test: Inhibitory activity on Ehrlich's solid carcinoma in mice; assay type: in vivo, mice (ICR, female); conditions: for Percent inhibition (decrease in weight of solid carcinoma vs untreated control): once a day for 7 days from 7th day, weighed on 15th day
Procedure: (2) Inhibitory activity on Ehrlich's solid carcinoma in mice ICR mice (female, 6 weeks-aged, 4 mice in each group) were inoculated with Ehrlich's ascites carcinoma cells (2×10^6 per mouse in the form of a cell suspension) subcutaneously at the groin of the mice. After the 7th day from the inoculation of the carcinoma cells, an injectable solution of Conagenin was intraperitoneally injected into the carcinoma-bearing mice at a dosage of 6.25, 3.1, 1.56, 0.78, 0.39 and 0.195 mg/Kg once a day during the consecutive 7 days for each group of mice. On the 15th day from the inoculation of the carcinoma cells, the solid carcinoma so grown was cut off and the weight of the solid carcinoma was determined. Control test was conducted using 8 mice of the same type as above in a usual manner. Percent inhibition of the proliferation of the solid carcinoma, i.e. the percent decrease in the weight of the solid carcinoma in each treated group of mice administered with Conagenin as compared to that in the control group of mice (untreated), is callculated and shown in Table 3 below.

[4] = Acute toxicity (LD50), intraperitoneal administration to female ICR mice; conditions: mouse, in vivo
Procedure: Toxicity of Conagenin was tested by intraperitoneal administration to female ICR mice and estimated as its LD50 being higher than 50 mg/Kg.

[5] = Acidic nature; assay type: physicochemical

## CC(O)C(C)C(O)C(=O)NC(C)(CO)C(=O)O (centres unmarked) [Conagenin]
[1]
  binding of Concanavalin A to L1210 cells (in words): could increase the binding of Concanavalin A to L1210 cells
[1]; Mus musculus, L1210, 48 h, 0.25 μg/ml, 37° C., 2 days, control group = 100, read-out: Increase in binding of Concanavalin A
  activity at 0.25 µg/mL: < 100%
[1]; Mus musculus, L1210, 48 h, 0.5 μg/ml, 37° C., 2 days, control group = 100, read-out: Increase in binding of Concanavalin A
  activity at 0.5 µg/mL: 129%
[1]; Mus musculus, L1210, 48 h, 1.0 μg/ml, 37° C., 2 days, control group = 100, read-out: Increase in binding of Concanavalin A
  activity at 1 µg/mL: 121%
[2]; chloroform
  Solubility in chloroform: insoluble; also recorded: sparingly soluble
[2]; methanol
  Solubility in methanol: readily soluble; also recorded: Easily soluble
[2]; water
  Solubility in water: soluble in water
[3]; 0.195 mg/Kg/day i.p.
  Percent inhibition (decrease in weight of solid carcinoma vs untreated control): 44%
[3]; 0.39 mg/Kg/day i.p.
  Percent inhibition (decrease in weight of solid carcinoma vs untreated control): 29%
[3]; 0.78 mg/Kg/day i.p.
  Percent inhibition (decrease in weight of solid carcinoma vs untreated control): 58%
[3]; 1.56 mg/Kg/day i.p.
  Percent inhibition (decrease in weight of solid carcinoma vs untreated control): 44%
[3]; 3.1 mg/Kg/day i.p.
  Percent inhibition (decrease in weight of solid carcinoma vs untreated control): 67%
[3]; 6.25 mg/Kg/day i.p.
  Percent inhibition (decrease in weight of solid carcinoma vs untreated control): 45%
[3]; Ehrlich's solid carcinoma in mice
  carcinostatic or antitumor activity in vivo (in words): significant carcinostatic or antitimor activity; also recorded: significant carcinostatic or antitumor activity in vivo
[4]
  toxicity (in words): low toxicity
[4]; ip, intraperitoneal, female ICR mice
  LD50: > 50 mg/kg
[5]
  acidity (in words): weakly acidic
